Results taken from patent publication US9102667B2, “N-arylaminomethylene benzothiophenones for treatment of cardiovascular disease” (FORSCHUNGSVERBUND BERLIN E.V., priority 2011, dated 2015).
pIC50: −log10 of the molar value.

molecular target: AKAP-PKA interaction (Homo sapiens, UniProt P13861); test: AKAP-PKA interaction (disruption) assays of Examples 1-3: alpha screen, surface plasmon resonance, ELISA (combined classification); format: binding; settings: absolute values stated in structure-activity text; method not specified; read-out: IC50
Sequence (P13861 2-404 limits assumed): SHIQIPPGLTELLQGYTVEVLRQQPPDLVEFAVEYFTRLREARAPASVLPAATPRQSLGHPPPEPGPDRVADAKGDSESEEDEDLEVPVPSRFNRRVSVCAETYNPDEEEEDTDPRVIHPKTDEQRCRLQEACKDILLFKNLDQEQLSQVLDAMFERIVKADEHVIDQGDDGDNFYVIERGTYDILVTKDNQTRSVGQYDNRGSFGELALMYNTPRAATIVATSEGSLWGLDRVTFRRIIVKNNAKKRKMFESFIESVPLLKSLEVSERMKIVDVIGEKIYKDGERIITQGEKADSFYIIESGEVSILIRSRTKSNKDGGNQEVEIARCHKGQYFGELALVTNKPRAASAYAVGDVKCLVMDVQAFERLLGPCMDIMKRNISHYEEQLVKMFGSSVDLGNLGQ
Experimental: The inhibition of the interaction of the alpha RII subunit of protein kinase A with AKAP18-alpha by the compounds according to the invention is determined as follows:
The experiment measures the suitability of candidate compounds for the inhibition of the interaction between AKAP and PKA. An AKAP-GST fusion construct is immobilized on glutathione donor beads and His-RII-alpha on Ni-chelate acceptor beads. To the extent that the partners interact, singlet oxygen from the donor beads becomes free and activates the fluorescence emission of the acceptor beads. The fluorescence emission determined in the microplate reader is proportional to the intensity of interaction of the protein partners. The IC50 is determined from the results of the measurement of several concentrations of one candidate compound.
The details of the process were as follows: Two protein Solutions A and B are produced in a buffer (phosphate NaCl buffer, 0.1% polysorbate 80, 0.1% [=1 mg/ml BSA]). These contain (A) the histidine-6-tagged fusion construct RII-alpha-His (3.125 nmol/l) and (B) the glutathione-S-transferase-tagged fusion construct GST-AKAP18-alpha-d2-10 (6.25 nmol/l). One volume unit each of protein solution and bead suspension are incorporated, specifically Solution A of the His6-tagged protein with Ni-chelate bead suspension and Solution B of the GST-fusion protein with glutathione beads (Perkin Elmer Product No. 6765302), and in doing so the concentrations are selected according to the manufacturers information. The Mixtures A and B obtained are incubated for one hour at room temperature (RT) in the dark.
Then, 5 μl of Mixture A is laid out for each hole on a 384-hole microtiter plate, and then to start with 0.5 μl of a solution of the candidate compound in DMSO is added and then 5 μl of Mixture B. The resulting reaction mixture is incubated 1 h at RT in the dark. Then, the reaction is tempered to 28.5° C., and the emitter intensity of the acceptor is determined in a microtiter plate reader after excitation of the donor at 680 nm.
The relative inhibition of the AKAP-PKA interaction is calculated following the formula: 1−(xc−y)/(z−y) where: X=average of readings (n=3) at concentration c; Y=average of measurement data from bead-bead check (n=6); Z=average of measurement data from protein-protein check (n=6). Results:
Surface plasmon resonance analyses for competition in solution were performed with streptavidin-coated sensor chips (GE Healthcare, Uppsala, Sweden). The N-terminal biotinylated peptide AKAP18d-L314E was used, which is a variant of the RH-binding domains of AKAP18δ (Hundsrucker et al., Biochem. J. 396, 297-306, [2006]). The binding of the regulatory subunit of the human PKAII-α or RII-β onto the peptide surface of the AKAP18δ-L314E, or the inhibition of this binding to RII by the compounds of the invention, was measured on a Biacaore 3000 machine (Biacore/GE Healthcare) as previously described (Henn et al., J Biol Chem 279, 26654-26665 [2004]). The compounds were injected for 60 sec at a flow rate of 30 μl/min, and the dissociation phase was measured for 180 sec.
Multititer plates (Corning B.V. Life Sciences, Schiphol-Rijk, Netherlands) were coated with recombinantly produced PKA RIIα (15 ng/hole) by incubation with phosphate buffer containing protease inhibitors (1 h, 22° C.). The plate was then blocked with lactoprotein.
GST-AKA7δ (Hundsrucker et al., Biochem. J. 396, 297-306, [2006]; 15 ng/well) was incubated with and without candidate compounds on the plate for 1 h at 22° C. After washing, it was incubated with antibodies (rabbit) against AKA7δ (A18δ3) and then with a peroxidase-conjugated antirabbit antibody and developed with dye substrate (LumiLight Western Blotting Substrate, Roche Diagnostics, Mannheim, Germany). Luminescence activity was determined in a microplate reader (GeniosPro, Tecan, Durham, N.C., United States) at 10 msec integration.

Compound | pIC50
O=C1/C(=C/Nc2nccs2)Sc2ccccc21 [T2/6, (2Z)-2-[(thiazole-2-ylamino)methylene]benzothiophene-3-one] | ~4.10
O=C1/C(=C/Nc2ncc[nH]2)Sc2ccccc21 [T2/1, (2Z)-2-[(1H-imidazole-2-ylamino)methylene]benzothiophene-3-one] | ~4.10

same assay, conditions: assays of Examples 1-3

Compound | Activity in AKAP-PKA interaction assays (in words)
Cc1ccccc1N/C=C1/Sc2ccccc2C1=O [T3/4, (2E)-2-[(2-methylanilino)methylene]benzothiophen-3-one] | abolished activity
O=C1/C(=C/Nc2ccc(O)cc2)Sc2ccccc21 [VI, (2Z)-2-[(4-hydroxyanilino)methylene]benzothiophen-3-one, reference compound] | could not be found to show significant reduction of AKAP-PKA interaction
O=C1/C(=C\Nc2cccc3ccccc23)Sc2ccccc21 [T2/39, (2e)-2-[(1-naphthylamino)methylene]benzothiophene-3-one] | barely detectable activity

same assay, conditions: class from IC50 values in assays of Examples 1, 2 or 3

Compound | Activity (IC50 class)
O=C1/C(=C/Nc2nc3ccccc3s2)Sc2ccccc21 [T2/23, (2Z)-2-[(1,3-benzothiazol-2-ylamino)methylene]-benzothiophen-3-one] | (2Z)-2-[(1,3-benzothiazol-2-ylamino)methylene]- benzothiophen-3-one Activity A/B
COC(=O)c1cnc(N/C=C2\Sc3ccccc3C2=O)s1 [T2/17, 2-[[(z)-(3-oxobenzothiophene-2-ylidene)methyl]amino]thiazole-5-carboxylic acid methylester] | 2-[[(z)-(3-oxobenzothiophene-2-ylidene)methyl]amino]thiazole-5-carboxylic acid methylester Activity: A(A)
O=C(O)c1ccc(N/C=C2\Oc3ccccc3C2=O)cc1 [T2/58, 4-[[(z)-(3-oxobenzofuran-2-ylidene)methyl]amino]benzoic acid] | 4-[[(z)-(3-oxobenzofuran-2-ylidene)methyl]amino]benzoic acid Activity: B/C

same assay, conditions: class from IC50 values in assays of Examples 1, 2 or 3; read-out: Activity (IC50 class)

Compound | pIC50
O=C1/C(=C/Nc2ncc(Br)s2)Sc2ccccc21 [T2/13, (2Z)-2-[[(5-bromothiazole-2-yl)amino]methylene]benzothiophene-3-one] | > 4.30
O=C1/C(=C/Nc2ncccn2)Sc2ccccc21 [T2/49, (2Z)-2-[(pyrimidine-2-ylamino)methylene]benzothiophene-3-one] | > 3.60
O=C1/C(=N/Nc2nccs2)Sc2ccccc21 [T2/50, (2Z)-2-(thiazole-2-ylhydrazono)benzothiophene-3-one] | > 4.60
O=C1/C(=C/Nc2cccc(Br)c2)Sc2ccccc21 [T2/37, (2Z)-2-[(3-bromoanilino)methylene]benzothiophene-3-one] | 3.12 to 3.60
O=C1/C(=C/Nc2nc3ccc(Br)cc3s2)Sc2ccccc21 [T2/28, (2Z)-2-[[(6-bromo-1,3-benzothiazole-2-yl)amino]methylene]benzothiophene-3-one] | > 3.82
O=C1/C(=N/Nc2ncc([N+](=O)[O-])s2)Sc2ccccc21 [T2/52, (2Z)-2-[(5-nitrothiazole-2-yl)hydrazono]benzothiophene-3-one] | > 4.60
O=C1/C(=C/Nc2nccs2)Sc2ccccc21 [T2/6, (2Z)-2-[(thiazole-2-ylamino)methylene]benzothiophene-3-one] | > 3.82
O=C1/C(=C/Nc2ccccc2[N+](=O)[O-])Sc2ccccc21 [T2/33, (2Z)-2-[(2-nitroanilino)methylene]benzothiophene-3-one] | > 3.82
Cn1c(N/C=C2\Sc3ccccc3C2=O)nc2ccccc21 [T2/3, (2Z)-2-[[(1-methylbenzimidazole-2-yl)amino]methylene]benzothiophene-3-one] | > 3.82
O=C1/C(=C/Nc2ccc3scnc3c2)Sc2ccccc21 [T2/29, (2Z)-2-[(1,3-benzothiazole-5-ylamino)methylene]benzothiophene-3-one] | 3.12 to 3.60
O=C1/C(=C\Nc2cccc3ccccc23)Sc2ccccc21 [T2/39, (2e)-2-[(1-naphthylamino)methylene]benzothiophene-3-one] | 3.12 to 3.60
O=C1/C(=C/Nc2nc3ccc([N+](=O)[O-])cc3s2)Sc2ccccc21 [T2/25, (2Z)-2-[[(6-nitro-1,3-benzothiazole-2-yl)amino]methylene]benzothiophene-3-one] | > 3.60
O=C1/C(=C/Nc2cc([N+](=O)[O-])ccc2O)Sc2ccccc21 [T2/35, (2Z)-2-[(2-hydroxy-5-nitro-anilino)methylene]benzothiophene-3-one] | 3.12 to 3.60
O=C1/C(=C/Nc2ncc[nH]2)Sc2ccccc21 [T2/1, (2Z)-2-[(1H-imidazole-2-ylamino)methylene]benzothiophene-3-one] | > 3.82
